Reference: patent US9695192B2, “Fused heterocyclic compounds as ion channel modulators” (GILEAD SCIENCES, INC., priority 2011, dated 2017)

Key:
Type in all cases: cell-based
human Nav1.1 = molecular target: T1, human Nav1.1 (Homo sapiens, UniProt P35498); test: Nav1.1 use-dependent block, whole-cell voltage clamp, 10 Hz pulse train; settings: Chantest conditions, read-out: NAV1.1 UDB-10 HZ % Inhibition
T1 construct: expressed in transfected cells; host or cells: HEK293, transient transfection (Qiagen Superfect), α1:β1:β2 at 10:1:1

[1] = molecular target: wild-type human cardiac sodium channel, hNav1.5 (Homo sapiens, UniProt Q14524); test: Late INa screening assay (QPatch whole cell patch clamp, tefluthrin-enhanced late sodium current); settings: HEK293 hNav1.5, late INa activated with 10 μM Tefluthrin
In short: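 Automated whole-cell patch clamp of HEK293 cells stably expressing hNav1.5 (no β subunits), 23-25 °C. Late current enhanced by 10 μM tefluthrin, 250 ms steps to −20 mV from −120 mV at 0.1 Hz, measured 225-250 ms. Compounds typically 1 μM, three additions over 7-8 min; % block normalised to 0 Na baseline.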

hNav1.2 sodium channel = molecular target: T2, hNav1.2 sodium channel (Homo sapiens, UniProt Q99250); test: Nav1.2 use-dependent block, whole-cell voltage clamp, 10 Hz pulse train; settings: Chantest conditions, read-out: NAV1.2 UDB-10 HZ % Inhibition
T2 construct: expressed in transfected cells
From the text: Wild-type (WT) cDNA stably transfected in Chinese hamster ovary (CHO) cells is used to record INa. Unless otherwise noted, all reagents are purchased from Sigma-Aldrich (St Louis, Mo., U.S.A.).
Whole-cell voltage-clamp recordings are used to measure the biophysical properties of WT. Briefly, the pipette solution consists of (in mM) 110 CsF, 10 NaF, 20 CsCl, 2 EGTA, 10 HEPES, with a pH of 7.35 and osmolarity of 300 mOsmol/kg. The bath (control) solution contains in (mM): 145 NaCl, 4 KCl, 1.8 CaCl2, 1 MgCl2, 10 dextrose, 10 HEPES, with a pH of 7.35 and osmolarity of 310 mOsmol/kg. Cells are allowed to stabilize for 10 min after establishment of the whole-cell configuration before current is measured. Series resistance is compensated 90% to assure that the command potential is reached within microseconds with a voltage error<2 mV. Leak currents are subtracted by using an online P/4 procedure and all currents are low-pass Bessel filtered at 5 kHz and digitized at 50 kHz.
Tonic block of peak current is measured using a step to −10 mV (20 ms) from a holding potential of −120 mV (0.2 Hz). Use-dependent block of peak current is measured during pulse number 300 of a pulse train (−10 mV, 5 ms, 300 pulses, 10 Hz or 25 Hz) from a holding potential of −120 mV. Currents are then normalized to the peak current recorded in response to the first pulse in each frequency train. For tonic block studies, peak current is evaluated in response to a 20 ms depolarization to −10 mV (0.2 Hz). Two sequential pulse train stimulations are averaged to obtain mean current traces for each recording condition, which are then used for offline subtraction and analysis.
A stock solution of 10 mM compound of Formula I is prepared in 0.1 M HCl or DMSO. A fresh dilution of the compound of Formula I in the bath solution is prepared every experimental day and the pH is readjusted to 7.35 as necessary. The final DMSO concentration was kept at 0.1% in all solutions. Direct application of the perfusion solution to the clamped cell is achieved using the Perfusion Pencil system (Automate, Berkeley, Calif.). Direct cell perfusion is driven by gravity at a flow rate of 350 μL/min using a 250 micron tip. This system sequesters the clamped cell within a perfusion stream and enables complete solution exchange within 1 second. The clamped cell is perfused continuously starting immediately after establishing the whole-cell configuration. Control currents are measured during control solution perfusion.
Solutions are perfused for three minutes prior to current recordings to allow equilibrium (tonic) drug block. Tonic block of peak currents is measured from this steady-state condition. Three sequential current traces are averaged to obtain a mean current for each recording. The mean current traces are utilized for offline analysis.

Sequence of wild-type human cardiac sodium channel, hNav1.5 (Q14524 whole entry): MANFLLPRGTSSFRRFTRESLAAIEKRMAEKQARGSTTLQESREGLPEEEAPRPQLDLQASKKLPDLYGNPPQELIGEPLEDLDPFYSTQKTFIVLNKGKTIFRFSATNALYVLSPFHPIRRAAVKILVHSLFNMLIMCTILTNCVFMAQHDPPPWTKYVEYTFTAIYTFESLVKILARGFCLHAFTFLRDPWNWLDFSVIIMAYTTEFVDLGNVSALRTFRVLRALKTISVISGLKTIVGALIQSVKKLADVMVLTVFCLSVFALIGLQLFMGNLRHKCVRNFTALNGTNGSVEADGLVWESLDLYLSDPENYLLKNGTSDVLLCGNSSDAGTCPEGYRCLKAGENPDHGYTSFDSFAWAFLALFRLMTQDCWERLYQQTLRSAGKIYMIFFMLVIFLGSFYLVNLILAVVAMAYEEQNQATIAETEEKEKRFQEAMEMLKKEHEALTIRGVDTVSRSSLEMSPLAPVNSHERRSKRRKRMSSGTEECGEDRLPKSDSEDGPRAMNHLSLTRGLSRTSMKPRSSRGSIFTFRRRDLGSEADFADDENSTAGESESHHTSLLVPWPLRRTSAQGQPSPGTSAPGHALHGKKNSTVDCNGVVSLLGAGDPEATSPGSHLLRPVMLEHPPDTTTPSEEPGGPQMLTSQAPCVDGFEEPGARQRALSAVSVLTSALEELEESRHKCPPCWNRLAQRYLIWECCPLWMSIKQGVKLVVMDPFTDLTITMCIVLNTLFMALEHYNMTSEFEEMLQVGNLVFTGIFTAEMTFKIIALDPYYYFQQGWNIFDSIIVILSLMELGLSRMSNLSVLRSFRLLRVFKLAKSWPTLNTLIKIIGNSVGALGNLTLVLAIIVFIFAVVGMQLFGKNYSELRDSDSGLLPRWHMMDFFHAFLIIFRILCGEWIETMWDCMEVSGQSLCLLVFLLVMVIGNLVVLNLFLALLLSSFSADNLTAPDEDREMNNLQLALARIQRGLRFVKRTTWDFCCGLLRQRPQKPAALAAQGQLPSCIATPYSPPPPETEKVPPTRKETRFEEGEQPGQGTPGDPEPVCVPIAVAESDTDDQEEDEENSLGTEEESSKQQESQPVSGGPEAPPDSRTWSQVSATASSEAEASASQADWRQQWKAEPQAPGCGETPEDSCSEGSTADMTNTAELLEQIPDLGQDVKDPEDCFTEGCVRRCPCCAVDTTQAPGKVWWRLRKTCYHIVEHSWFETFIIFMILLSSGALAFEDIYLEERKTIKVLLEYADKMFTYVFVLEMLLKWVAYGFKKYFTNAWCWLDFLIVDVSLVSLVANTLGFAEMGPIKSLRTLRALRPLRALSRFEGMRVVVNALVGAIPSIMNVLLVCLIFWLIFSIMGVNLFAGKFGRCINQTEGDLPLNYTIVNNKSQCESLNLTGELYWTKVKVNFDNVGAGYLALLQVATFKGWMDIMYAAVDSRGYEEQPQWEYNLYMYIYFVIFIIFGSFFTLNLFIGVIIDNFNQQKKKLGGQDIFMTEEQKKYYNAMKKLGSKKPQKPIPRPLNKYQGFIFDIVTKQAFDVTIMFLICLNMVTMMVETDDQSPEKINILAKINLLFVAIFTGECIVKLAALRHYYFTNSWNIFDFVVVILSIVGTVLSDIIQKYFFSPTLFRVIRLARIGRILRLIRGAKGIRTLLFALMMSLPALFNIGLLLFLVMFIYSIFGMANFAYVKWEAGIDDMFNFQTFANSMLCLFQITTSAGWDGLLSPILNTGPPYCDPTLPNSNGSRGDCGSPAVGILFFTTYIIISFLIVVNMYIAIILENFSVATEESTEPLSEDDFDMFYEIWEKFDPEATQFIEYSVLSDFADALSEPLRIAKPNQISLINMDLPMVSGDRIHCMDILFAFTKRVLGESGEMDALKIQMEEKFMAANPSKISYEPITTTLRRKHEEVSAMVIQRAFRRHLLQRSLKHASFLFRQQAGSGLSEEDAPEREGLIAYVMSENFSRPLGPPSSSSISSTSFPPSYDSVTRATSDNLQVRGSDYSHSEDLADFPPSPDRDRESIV
T2 sequence (Q99250 whole entry): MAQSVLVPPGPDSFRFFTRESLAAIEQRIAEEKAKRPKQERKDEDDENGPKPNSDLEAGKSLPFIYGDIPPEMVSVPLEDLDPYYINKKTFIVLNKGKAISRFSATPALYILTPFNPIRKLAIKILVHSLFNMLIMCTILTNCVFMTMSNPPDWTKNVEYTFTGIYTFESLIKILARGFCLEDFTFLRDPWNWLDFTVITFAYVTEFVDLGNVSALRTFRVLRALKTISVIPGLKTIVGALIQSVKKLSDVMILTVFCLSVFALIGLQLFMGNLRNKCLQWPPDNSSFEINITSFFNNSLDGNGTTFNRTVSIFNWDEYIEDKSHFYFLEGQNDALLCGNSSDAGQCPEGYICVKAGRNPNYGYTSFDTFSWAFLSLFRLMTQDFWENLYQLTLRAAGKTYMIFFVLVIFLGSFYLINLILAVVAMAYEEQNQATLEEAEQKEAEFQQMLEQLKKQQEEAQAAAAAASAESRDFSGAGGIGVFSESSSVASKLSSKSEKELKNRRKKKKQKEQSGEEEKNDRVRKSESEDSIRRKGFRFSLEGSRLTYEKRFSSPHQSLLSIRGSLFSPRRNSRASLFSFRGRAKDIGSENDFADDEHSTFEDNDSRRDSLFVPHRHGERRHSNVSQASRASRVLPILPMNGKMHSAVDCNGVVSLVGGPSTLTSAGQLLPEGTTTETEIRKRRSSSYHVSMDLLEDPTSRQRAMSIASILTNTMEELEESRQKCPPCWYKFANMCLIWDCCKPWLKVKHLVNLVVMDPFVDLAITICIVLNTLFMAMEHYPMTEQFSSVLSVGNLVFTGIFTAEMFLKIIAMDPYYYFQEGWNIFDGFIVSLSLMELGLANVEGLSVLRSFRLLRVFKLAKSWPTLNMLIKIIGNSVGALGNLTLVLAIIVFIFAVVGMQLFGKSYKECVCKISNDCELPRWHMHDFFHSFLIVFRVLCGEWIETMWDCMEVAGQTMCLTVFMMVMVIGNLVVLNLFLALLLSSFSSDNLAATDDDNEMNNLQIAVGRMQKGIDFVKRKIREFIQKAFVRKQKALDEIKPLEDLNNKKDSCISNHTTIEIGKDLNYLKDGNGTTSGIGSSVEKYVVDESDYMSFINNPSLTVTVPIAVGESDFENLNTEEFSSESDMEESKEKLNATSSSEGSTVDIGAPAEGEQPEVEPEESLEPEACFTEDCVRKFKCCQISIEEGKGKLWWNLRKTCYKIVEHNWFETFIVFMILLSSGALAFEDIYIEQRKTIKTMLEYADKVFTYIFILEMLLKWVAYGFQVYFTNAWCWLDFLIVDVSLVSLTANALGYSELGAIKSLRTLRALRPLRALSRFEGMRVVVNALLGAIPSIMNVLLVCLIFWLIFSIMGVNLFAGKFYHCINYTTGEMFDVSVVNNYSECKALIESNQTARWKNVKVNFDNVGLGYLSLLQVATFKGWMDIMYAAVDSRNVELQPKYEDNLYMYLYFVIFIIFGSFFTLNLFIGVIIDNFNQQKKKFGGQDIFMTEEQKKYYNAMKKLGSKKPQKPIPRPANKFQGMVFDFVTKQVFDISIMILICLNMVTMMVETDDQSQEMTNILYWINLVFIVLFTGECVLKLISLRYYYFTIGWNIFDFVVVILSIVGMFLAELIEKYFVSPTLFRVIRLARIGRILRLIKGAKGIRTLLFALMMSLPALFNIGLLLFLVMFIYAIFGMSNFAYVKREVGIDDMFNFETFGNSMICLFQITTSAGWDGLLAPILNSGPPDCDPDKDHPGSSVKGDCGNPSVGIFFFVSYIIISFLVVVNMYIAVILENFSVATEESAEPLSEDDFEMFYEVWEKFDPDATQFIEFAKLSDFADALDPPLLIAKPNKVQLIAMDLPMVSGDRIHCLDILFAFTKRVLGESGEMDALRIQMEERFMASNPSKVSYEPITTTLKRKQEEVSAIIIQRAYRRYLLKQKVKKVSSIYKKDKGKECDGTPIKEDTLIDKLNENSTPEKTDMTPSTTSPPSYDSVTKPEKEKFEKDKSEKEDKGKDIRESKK

FC(F)(F)c1ccc(-c2ccc3c(c2)C(NCc2ccccc2)=NCCO3)cc1 [II-2, N-benzyl-7-(4-(trifluoromethyl)phenyl)-2,3-dihydrobenzo[f][1,4]oxazepin-5-amine]
inhibition at 1 µM (human Nav1.1): 9%
inhibition at 1 µM [1]: 41%
inhibition at 1 µM (hNav1.2 sodium channel): 24%
